# Results from patent publication US6569846B1, “Palladium-substituted bacteriochlorophyll derivatives and use thereof” (Yeda Research and Development Co. Ltd., priority 1998, dated 2003).
# “And” between values parts separate entries of the source, which are not always exact repeats. Identical values can stand only once.
# What was measured:
# [1] = test system: RIF (Radiation induced Fibrosarcoma) line; experiment: In vitro phototoxicity on RIF cells (MTT); type: cell-based, mouse
# Procedure: (i) Cell lines. The murine leukemia cell line (L1210) was maintained in suspension culture using Fischer's medium supplemented with 10% horse serum, 1 mM glutamine, 1 mM mercaptoethanol and gentamicin. The RIF (Radiation induced Fibrosarcoma) tumor was maintained as specified by Twentyman et al. (1980, “A new mouse tumor model system (RIF-1) for comparison of end-point studies”, J. Natl. Cancer Inst., 64, 595-604). Cultures were grown in Weymouth's medium containing 10% fetal calf serum and gentamycin.
# (ii) In vitro phototoxicity. For studies on phototoxicity involving L1210 and RIF cells, light was provided by a 600 watt quartz-halogen source filtered with 10 cm of water and a 850 nm cut-off filter to remove IR. The bandwidth was further confined to 660±5 nm by an interference filter (Oriel). Cells in suspension (L1210) or adhering to 24 mm diameter cover slips were incubated in growth medium (with 20 mM HEPES pH 7 replacing NaHCO3 for added buffering capacity) for 15 min in the presence of specified levels of sensitizers. […] For some studies, the cells were then labeled with fluorescent probes and sites of photodamage were assessed. […]
# (iii) Cell Viability. Cell survival was assessed by the MTT reaction carried out 3 days after plating of 1,000-50,000 cells in 96 well plates. […] Absorbance at x nm was determined with a BioRad Plate reader. […]
# [2] = test system: A431 human epithelial carcinoid cells
# Procedure: (ii) Light source: Halogen lamp (Osram, Germany, 100 W), with 4.5 cm water filter and cut off filter>650 nm. The cells were illuminated for 10 minutes, 15 mW/cm^2, a total energy fluency of 9 J/cm^2. For illumination, the culture plates were placed on a glass table to provide the light from the bottom.
# (iii) Phototoxicity study: A431 cells (5×10^4 cells) were seeded in 3 cm dishes in duplicates and cultured to 75% confluency in Dulbecco's modified Eagle's medium (DMEM)+F12 (1:1), buffered with HEPES (25 mM, pH 7.4), fetal calf serum (FCS) with penicillin (0.06 mg/ml) and streptomycin (0.1 mg/ml). […] After a 4-hour period the cells were washed with culture medium and the cells were illuminated with the light source above. Phase contrast microscopic examination was performed at different time points after illumination (0, 0.5, 4 and 24 hours post-PDT) using Zeiss Axiovert-35 light microscope (magnification X320) equipped with a Contax 35 mm SLR camera. In the second dish of every duplicate, cell viability was assessed 24 hours post-PDT using neutral red viability assay (Zhang S Z., 1990, Cell Biol Toxicol 6(2): 219-234).
# [3] = test system: mouse leukemia L1210 cells; experiment: Sites of photodamage (fluorescent probes); type: cell-based
# Procedure: (ii) In vitro phototoxicity. For studies on phototoxicity involving L1210 and RIF cells, light was provided by a 600 watt quartz-halogen source filtered with 10 cm of water and a 850 nm cut-off filter to remove IR. The bandwidth was further confined to 660±5 nm by an interference filter (Oriel). Cells in suspension (L1210) or adhering to 24 mm diameter cover slips were incubated in growth medium (with 20 mM HEPES pH 7 replacing NaHCO3 for added buffering capacity) for 15 min in the presence of specified levels of sensitizers. The cells were then washed free from the sensitizer, and transferred to fresh media. Irradiations were carried out at 10° C. For some studies, the cells were then labeled with fluorescent probes and sites of photodamage were assessed. In other studies, the cells were then incubated for 60 min at 37° C. in fresh medium to allow apoptosis to proceed. Viability studies were carried out using 96-well plates and a 72-hour MTT assay, in quadruplicate.
# [4] = test system: C6 glioma tumors; experiment: In vivo PDT of C6 glioma tumors and metastasis formation; parameters: species or system CD1 nude mice; conditions: 5 mg/Kg i.v.; for tumor flattening (disappearance): 200 mw/cm^2 for 30 minutes
# Procedure: (i) Materials: Pd-BPheid (prepared as in Example 1) or Pd-BPpheid-SerOMe 5 mg/kg in 20% Cremophor EL.
# (ii) Light source: The light source was a Xenon fluorine LS3-PDT lamp (Bio-Spec, Russia), with 10 cm water filter and 720-850 nm light band.
# (iv) Tumors: Mice were implanted with 10^6 C6 glioma cells in the foot of the hind leg. Tumors were treated when reached a length of 7-8 mm.
# (vii) Protocol: Three groups (10 mice in each) were i.v. injected with 5 mg/Kg of sensitizer (Pd-BPheid or Pd-BPpheid-SerOMe) and immediately illuminated at 200 mw/cm^2, for 30 minutes, and the animals were allowed to recover in the cage. Groups 1 and 2: Animals which received PDT Pd-Bpheid and Pd-BPpheid-SerOMe, respectively. Tumor response and metastasis formation in groin were followed for 4 weeks. Group 3: Animals which were amputated at the ankle joint (paired with group 1) and metastasis formation in groin was followed for 4 weeks. The parameters of response to PDT were the percent of animals with tumor necrosis and disappearance, out of the total number of treated animals. Metatstasis was manifested by appearance of tumors in the groin or elsewhere. The endpoints considered were: follow up for 4 weeks, spontaneous death, tumors reached a diameter of 2 cm, metastasis, whichever came first.
# [5] = test system: RIF-1 fibrosarcoma; experiment: In vivo PDT of RIF-1 fibrosarcoma; parameters: key to Summary (cures), symbol: −: no response
# Procedure: Photodynamic therapy parameters: Mice with tumors measuring 5-7 mm in diameter were entered into PDT experiments. Three Pd-BPheid drug doses (1, 5 and 10 mg/kg) and two light doses (100 and 300 Joules/sq.cm) were evaluated. A formulation of Pd-BPheid dissolved in Cremophor was administered by i.v. tail injection. PDT light exposure was started either 15 minutes, 1 hour or 4 hours following injection. […] A titanium sapphire laser tuned to 757 nm was used as the light source for PDT. Laser generated light was coupled into quartz fibers for delivery of light to tumors. A light power density of 75 mW/sq.cm was used. Tumor size was measured 3 days per week following PDT treatments and the percentage of tumor cures (defined as no tumor recurrence for 40 days post treatment) was determined.
# In vivo PDT Response: Tables 4 and 5 hereinafter provide summaries of the PDT treatment results for C3H mice transplanted with either the BA mammary carcinoma or the RIF-1 fibrosarcoma. Each table indicates the following parameters: 1) intravenous drug dose expressed in mg/kg; 2) laser treatment parameters, including the total light dose (J/cm^2), the wavelength (757 nm), the light dose rate (mW/cm^2), and the time interval ([…], 4) toxicity (four mice died shortly after treatment), 5) tumor regrowth (consisting of the number of days between PDT treatment and tumor recurrence) and 6) the number of mice (and percentage) with Pd-BPheid PDT induced tumor cures.
# [6] = 1 mg/Kg i.v., 300 J/cm^2, 757 nm, 75 mW/cm^2, 15 min. interval
# [7] = 5 mg/Kg i.v., 300 J/cm^2, 757 nm, 75 mW/cm^2, 1 HR. interval
# [8] = 5 mg/Kg i.v., 300 J/cm^2, 757 nm, 75 mW/cm^2, 15 min. interval
# [9] = 10 mg/Kg i.v., 100 J/cm^2, 757 nm, 75 mW/cm^2, 1 HR interval
# [10] = 10 mg/Kg i.v., 100 J/cm^2, 757 nm, 75 mW/cm^2, 15 min. interval
# [11] = 10 mg/Kg i.v., 300 J/cm^2, 757 nm, 75 mW/cm^2, 1 HR interval
# [12] = 10 mg/Kg i.v., 300 J/cm^2, 757 nm, 75 mW/cm^2, 4 HR interval
# [13] = 10 mg/Kg i.v., 300 J/cm^2, 757 nm, 75 mW/cm^2, 15 min. interval
smiles,measurement,setting,value
"CC[C@H]1C2=NC(=Cc3c(C(C)=O)c(C)c4[n]3[Pd][n]3c(c(C)c5c3=C(C3=NC(=C4)[C@@H](C)[C@@H]3CCC(=O)O)[C@@H](C(=O)OC)C5=O)=C2)[C@@H]1C [Pd-BPheid, Pd-bacteriopheophorbide a]",light dose required for a similar degree (50%) of cell killing,[1],215 mJ/cm^2
same,LD90 concentration,"[2]; 4-hour incubation, illuminated 10 minutes, 15 mW/cm^2, 9 J/cm^2",0.1 µM
same,cells that lost most of their inner volume,[2]; after 4 hours post PDT,90%
same,time of alteration in the cells membrane structure,[2]; post PDT,30 min
same,morphological phenotype post PDT,"[2]; sensitizer at LD90 concentration, phase contrast microscopy",fibrous phenotype
same,photodamage to the plasma membrane or to lysosomes,[3],no detectable photodamage
same,site of photodamage,[3],highly specific mitochondrial photosensitizers
same,effect of PDT on C6 glioma tumors,[4],curative
same,tumor flattening (disappearance),[4]; day 11,100%
same,tumor flattening (disappearance),[4]; day 28,about 60%
same,frequency of metastasis after PDT,[4]; follow up for 4 weeks,up to 23%
same,Number of Animals with Primary Tumor Regrowth (Days to Recurrence),[5]; [6],2(1 day)
same,"Summary (cures), symbol",[5]; [6],−
same,Toxicity (Treatment associated death),[5]; [6],0
same,Number of Animals with Primary Tumor Regrowth (Days to Recurrence),[5]; [7],1(4 days) and 1(2 days) and 1(7 days)
same,Toxicity (Treatment associated death),[5]; [7],0
same,Number of Animals with Primary Tumor Regrowth (Days to Recurrence),[5]; [8],1(5 days) and 1(12 days)
same,Summary (cures) %,[5]; [8],33.33%
same,"Summary (cures), number of animals (days)",[5]; [8],1(40 days)
same,Toxicity (Treatment associated death),[5]; [8],0
same,Number of Animals with Primary Tumor Regrowth (Days to Recurrence),[5]; [9],2(3 days) and 1(6 days)
same,Toxicity (Treatment associated death),[5]; [9],0
same,Number of Animals with Primary Tumor Regrowth (Days to Recurrence),[5]; [10],2(12 days) and 1(7 days)
same,Toxicity (Treatment associated death),[5]; [10],0
same,Number of Animals with Primary Tumor Regrowth (Days to Recurrence),[5]; [11],1(20 days)
same,Summary (cures) %,[5]; [11],25.00%
same,"Summary (cures), number of animals (days)",[5]; [11],1(40 days)
same,Toxicity (Treatment associated death),[5]; [11],2
same,"Toxicity (Treatment associated death), number of animals (day)",[5]; [11],2(1 day)
same,"Summary (cures), symbol",[5]; [12],−
same,Toxicity (Treatment associated death),[5]; [12],0
same,Summary (cures) %,[5]; [13],33.33%
same,Toxicity (Treatment associated death),[5]; [13],2
same,"Toxicity (Treatment associated death), number of animals (day)",[5]; [13],2(1 day)
same,effectiveness of PDT,[5]; 4-hour interval between drug administration and light treatment,not effective
same,effectiveness of PDT,[5]; light treatments initiated within 1 hour of drug administration,effective
